Laboratory results: PMC11203266, “Continuous evolution of compact protein degradation tags regulated by selective molecular glues” (Science (New York, N.Y.), 2024)

Tests used:
DDB1•CRBN = molecular target: T1, DDB1•CRBN (Homo sapiens, UniProt Q96SW2); assay: Competitive fluorescence anisotropy (polarization) vs thalidomide-Cy5; format: binding; settings: competition with thalidomide–Cy5; KD estimated from Ki
T1 construct: made in house
Description: Competitive fluorescence polarization experiments were performed according to previously reported methods ([65]). All experiments were performed in 25 mM HEPES, […], 1 mM TCEP, pH 7.4. A pre-complexed sample was prepared by incubating DDB1-CRBN (400 nM) with thalidomide–Cy5 conjugate (fig. S2A) (80 nM) at RT for 30 minutes with gentle shaking (220 rpm). […] Polarization values were measured on an Infinite M1000 Pro microplate reader (Tecan) following 1 hour of incubation at RT with gentle shaking. A total of three independent measurements were acquired and averaged per biological sample to generate the values shown in figure S2C. All mP values were normalized between 0 and 100 using the formula NormalizedmP=[(x−minimum)/[…]]∗100 , where ‘‘x’’ is the mP value of the sample and ‘‘minimum’’ and ‘‘maximum’’ are the minimum and maximum mP values, respectively, across all samples. KD values were estimated from computed Ki-values as previously described ([65]).

SD40–BRD4 = assay: Immunoblot, endogenous SD40-tagged BRD4 in K562 cells; format: cell-based, human; settings: 24 hrs
Description: (§1) Next, we evaluated the installation of SD40 at endogenous genomic target genes in mammalian cells using twin prime editing (twin PE) ([54], [75]). We optimized prime editing parameters, including spacer position and prime editor construct ([30]), to insert SD40 at the C-terminus of PLK1 with 26% editing efficiency and 8.8% indel byproducts in HEK293T cells (Fig. 3E, fig. S13), enabling rapid isolation of a homozygous PLK1-SD40 cell line. PLK1 is an essential cell-state regulator ([76]), and complete knockdown for 24 hours is cytotoxic. […] We also used twin prime editing to install SD40 at the N-terminus of BRD4 yielding 7.7% knock-in of SD40 in K562 cells (Fig. 3E, S13) with 4.3% indel byproducts. […] For comparison, we also attempted scarless insertion of SD40 and FKBP12^F36V from the dTag system (324 base pairs) ([17]) at the N-terminus of BRD4 using Cas9 nuclease-directed HDR using two different sgRNAs and a double-strand donor DNA template. […]
(§2) HEK293T or K562 cells were plated at a density of 1.6 x 10^5 cells/well in a 24-well plate coated with poly-D-lysine (Corning) in 1 mL media (DMEM + 10% FBS for HEK293T cells and RPMI + 10% FBS for K562 cells). […] Protein concentration in clarified lysates was quantified using Pierce BCA Protein Assay Kit (Thermo Scientific) according to the manufacturer’s protocol. […]

TUB = molecular target: T2, TUB (Homo sapiens, UniProt P50607); assay: Western blot of TUB in HEK293T cells; format: cell-based; settings: 100-10,000 nM
T2 construct: endogenous in cells; host or cells: HEK293T
Description: HEK293T or K562 cells were plated at a density of 1.6 x 10^5 cells/well in a 24-well plate coated with poly-D-lysine (Corning) in 1 mL media (DMEM + 10% FBS for HEK293T cells and RPMI + 10% FBS for K562 cells). After 16–18 hrs, cells were treated with either DMSO or the indicated concentration of small molecules to a 0.5% final concentration of DMSO. Plates were incubated at 37 °C, 5% CO2 for 24 hours for all cell lines except endogenously tagged PLK1–SD40 HEK293T cells, which were incubated for 2 hours. Cells were washed with PBS and then lysed for 30 minutes at 4 °C in radioimmunoprecipitation assay (RIPA; 25 mM Tris-HCl, 150 mM NaCl, 1% NP-40, 1% sodium deoxycholate, 0.1% SDS, pH ~ 7.6) buffer containing 1 mM phenylmethylsulfonyl fluoride (PMSF; Sigma Aldrich) and 1 x EDTA-free protease inhibitor cocktail (Roche). Lysates were centrifuged for 20 min @18,000 x g to isolate the soluble fractions. Protein concentration in clarified lysates was quantified using Pierce BCA Protein Assay Kit (Thermo Scientific) according to the manufacturer’s protocol. Clarified lysates were mixed with NuPAGE LDS Sample Buffer (Thermo NP0007) containing 10 mM DTT and boiled for 10 minutes. Gel electrophoresis was performed on boiled samples using polyacrylamide gels (Invitrogen NP0329BOX) with equal amounts of total protein in each lane. […]
values were calculated using a Welch's t-test. […]

PLK1-SD40 = assay: Immunoblot, endogenous SD40-tagged PLK1 in HEK293T cells; format: cell-based, human; settings: 2 hours of treatment
Description: as §1, §2

full-length CRBN = molecular target: T3, full-length CRBN (Homo sapiens, UniProt Q96SW2); assay: Full-length CRBN MG-PACE circuit luminescence assay; format: cell-based; settings: pomalidomide; degron SD0; vs DMSO
T3 construct: Full-length CRBN MG-PACE circuit; expressed in transfected cells; host or cells: E. coli S2060
Description: To evolve ZFs that engage PT-179-bound CRBN, we constructed an MG-PACE circuit using the CRBN•IMiD•ZF molecular glue complex. […] We translationally fused CRBN to the DNA-binding protein RR69 and fused SD0 to the RNAP ω-subunit, then measured transcriptional activation by luminescence (Fig. 2A).
Chemically competent S2060 cells were co-transformed with accessory and complementary plasmids (Table S1).

SMILES: O=C1CCC(N2C(=O)c3ccc(N4CCOCC4)cc3C2=O)C(=O)N1 (centres unmarked) [PT-179]
- Kd (DDB1•CRBN): 587 nM
- SD40–BRD4 degradation (in words) (SD40–BRD4): robust degradation
- TUB degradation (in words) (TUB): does not degrade TUB
- PLK1 knockdown (in words) (PLK1-SD40): robust PLK1 knockdown

SMILES: Nc1cccc2c1C(=O)N(C1CCC(=O)NC1=O)C2=O (centres unmarked) [pomalidomide, reference compound]
- maximal transcriptional activation (full-length CRBN): 7 fold
